The values below are quoted from earlier work in patent publication US12048763B2, “Compositions and methods for treating sialorrhea” (priority 2021, dated 2024).

For the series the following is noted: by 6 months.

Regarding `C[N+]1(C)CCC(OC(=O)C(O)(c2ccccc2)C2CCCC2)C1` (stereo not shown) [glycopyrrolate], the “participants no longer taking the drug due to adverse effects” value is 45%.
